Consider seven compounds from ChEMBL document CHEMBL1158720, “Ambigol C and 2,4-dichlorobenzoic acid, natural products produced by the terrestrial cyanobacterium Fischerella ambigua” (J Nat Prod, 2005).

One experiment concerns Trypanosoma cruzi. Description: Antitrypanosomal activity against Trypanosoma cruzi trypomastigotes. It is filed as functional.
Experiment [1] has as its system Trypanosoma brucei rhodesiense. Description: Antitrypanosomal activity against Trypanosoma brucei rhodesiense trypomastigotes. It is filed as functional.
The test system of a further experiment is Escherichia coli. Description: Antimicrobial activity against Escherichia coli at 50 ug/filter disk. It is filed as functional.
The subject of another experiment is Priestia megaterium. Description: Antimicrobial activity against Bacillus megaterium at 50 ug/filter disk. It is filed as functional.
A further experiment has as its system Microbotryum violaceum. Description: Antimicrobial activity against […] at 50 ug/filter disk. It is filed as functional.
For experiment [2], the system named is Aspergillus pseudoglaucus. Briefly: Antimicrobial activity against Eurotium repens at 50 ug/filter disk. It is filed as functional.
A further experiment has as its system Fusarium oxysporum. Description: Antimicrobial activity against Fusarium oxysporum at 50 ug/filter disk. It is filed as functional.
The test system of another experiment is Mycotypha microspora. Briefly: Antimicrobial activity against Mycotypha microspora at 50 ug/filter disk. It is filed as functional.
Another experiment has as its system [Chlorella] fusca. Description: Antimicrobial activity against Chlorella fusca at 50 ug/filter disk. It is filed as functional, Scenedesmus fuscus.
The test system of experiment [3] is Plasmodium falciparum. Briefly: Antiplasmodial activity against chloroquine-resistant Plasmodium falciparum K1. It is filed as functional, organism-based.
Experiment [4] has as its system Plasmodium falciparum. Briefly: Antiplasmodial activity against chloroquine-sensitive Plasmodium falciparum NF54. It is filed as functional, organism-based.
The test system of experiment [5] is Mycobacterium tuberculosis. Briefly: Antimicrobial activity against Mycobacterium tuberculosis. It is filed as functional.
The test system of a further experiment is Biomphalaria glabrata. Briefly: Molluscicidal activity against Biomphalaria glabrata at 100 ug/ml. It is filed as functional, organism-based.
Another experiment relates to L6. Briefly: Cytotoxicity against rat L6 cells. It is filed as functional.

Converted amounts (≈) assume the structure as drawn. The source made the active and inactive calls. No cut-off for these calls is given here.

On to `Nc1nc(N)nc(Nc2ccc([As]3SCC(CO)S3)cc2)n1` (configuration not stated) [MELARSOPROL], for which the MIC (in the experiment on Trypanosoma cruzi; in [1]) was 0.011 µg/mL in each case.

`Oc1c(Cl)cc(Cl)cc1-c1c(Cl)cc(Cl)c(Oc2ccc(Cl)cc2Cl)c1O` [AMBIGOL A]: the result in the experiment with Escherichia coli was inactive. For the same compound, the “inhibition zone (IZ)” value in the experiment with Priestia megaterium stood at 8 mm; in the experiment on Microbotryum violaceum, 7 mm; in [2] it was 7 mm; in the experiment on Fusarium oxysporum, 8 mm; in the experiment with Mycotypha microspora it was 4 mm; in [Chlorella] fusca, 3 mm. Further, the MIC in the experiment with Trypanosoma cruzi came to 33 µg/mL (≈ 68 µM); in experiment [1], 33 µg/mL (≈ 68 µM); in experiment [5], 64 µg/mL (≈ 132 µM); against L6, 33 µg/mL (≈ 68 µM). Further, the values for the IC50 in the experiment with Plasmodium falciparum [3] and in the experiment with Plasmodium falciparum [4] were 0.846 µg/mL (≈ 1.74 µM) and 1.62 µg/mL (≈ 3.35 µM), respectively. Further, the result in the experiment with Biomphalaria glabrata was Active.

With `Oc1c(Cl)c(Oc2ccc(Cl)cc2Cl)cc(Oc2ccc(Cl)cc2Cl)c1Cl` [AMBIGOL C], the result (with Escherichia coli; in experiment [2]; in the experiment on Fusarium oxysporum; in the experiment with Mycotypha microspora; in [Chlorella] fusca (Scenedesmus fuscus); with Biomphalaria glabrata) was inactive. Besides, the “inhibition zone (IZ)” value with Priestia megaterium amounted to 7 mm; with Microbotryum violaceum, 5 mm. Further, the MIC is 100 µg/mL (≈ 206 µM) in the experiment with Trypanosoma cruzi, 11 µg/mL (≈ 22.7 µM) in experiment [1], more than 128 µg/mL in [5] and 100 µg/mL (≈ 206 µM) against L6. Besides, the concentration for half-maximal inhibition (IC50) is 1.54 µg/mL (≈ 3.17 µM) with Plasmodium falciparum [3] and 2.5 µg/mL (≈ 5.15 µM) in the experiment with Plasmodium falciparum [4].

For the compound `CO[C@H]1/C=C/O[C@@]2(C)Oc3c(C)c(O)c4c(O)c(c(/C=N/N5CCN(C)CC5)c(O)c4c3C2=O)NC(=O)/C(C)=C\C=C\[C@H](C)[C@H](O)[C@@H](C)[C@@H](O)[C@@H](C)[C@H](OC(C)=O)[C@@H]1C` [RIFAMPIN], in experiment [5], the MIC worked out at 0.125 µg/mL (≈ 0.152 µM).

Turning to `C[C@@H]1CC[C@H]2[C@@H](C)C(=O)O[C@@H]3O[C@@]4(C)CC[C@@H]1[C@]32OO4` [ARTEMISININ], the concentration for half-maximal inhibition (IC50) in the experiment on Plasmodium falciparum [3] is 0.001 µg/mL (≈ 0.00354 µM); in the experiment with Plasmodium falciparum [4], 0.003 µg/mL (≈ 0.0106 µM).

`CN[C@@H]1[C@H](O[C@H]2[C@H](O[C@H]3[C@H](O)[C@@H](O)[C@H](N=C(N)N)[C@@H](O)[C@@H]3N=C(N)N)O[C@@H](C)[C@]2(O)C=O)O[C@@H](CO)[C@H](O)[C@H]1O.CN[C@@H]1[C@H](O[C@H]2[C@H](O[C@H]3[C@H](O)[C@@H](O)[C@H](N=C(N)N)[C@@H](O)[C@@H]3N=C(N)N)O[C@@H](C)[C@]2(O)C=O)O[C@@H](CO)[C@H](O)[C@H]1O.O=S(=O)(O)O.O=S(=O)(O)O.O=S(=O)(O)O` [STREPTOMYCIN SULFATE]: the “inhibition zone (IZ)” value (with Escherichia coli; in the experiment on Priestia megaterium; in the experiment with Microbotryum violaceum; in experiment [2]; with Fusarium oxysporum; in the experiment with Mycotypha microspora) was 4 mm each time. Also, the “inhibition zone (IZ)” value in experiment [Chlorella] fusca is 4 mm.

On to `Clc1ccc(COC(Cn2ccnc2)c2ccc(Cl)cc2Cl)c(Cl)c1` (configuration not stated) [MICONAZOLE], for which the “inhibition zone (IZ)” value (in the experiment with Escherichia coli; with Priestia megaterium; in the experiment with Microbotryum violaceum; in experiment [2]; with Fusarium oxysporum; in the experiment on Mycotypha microspora) was 20 mm in each case. In [Chlorella] fusca, the “inhibition zone (IZ)” value was determined as 20 mm.

As usually defined, the IC50 is the concentration at which inhibition is half-maximal.
